Assay results from patent US20250367129A1, “Lipid Compounds and Uses Thereof” (Pfizer Inc., priority 2022, published 2025).

Legend:
[1] = LNP size and polydispersity index by Malvern Zetasizer dynamic light scattering (CA HA modFlu mRNA LNPs); assay type: physicochemical; conditions: DLS; for Size (nm): LNP of the ionizable lipid:cholesterol:DSPC:ALC-0159 about 46.3:42.7:9.4:1.6, N:P about 6:1, CA HA modFlu mRNA; for PDI: LNP with CA HA modFlu mRNA
Protocol: (§1) Lipid nanoparticles were prepared and tested according to the general procedures described in U.S. Pat. No. 9,737,619 (PCT Pub. No. WO2015/199952) and U.S. Pat. No. 10,166,298 (PCT Pub. No. WO 2017/075531) and PCT Pub. No. WO2020/146805. The novel ionizable lipids of the invention, cholesterol, distearoylphosphatidylcholine (DSPC) and ALC-0159 2-[(polyethylene glycol)-2000]-N,N ditetradecylacetamide were solubilized in ethanol at a molar ratio of about 46.3:42.7:9.4:1.6. Lipid nanoparticles were made by mixing the lipids containing organic phase with the mRNA containing aqueous phase using an N:P ratio of about 6:1. The mRNA was diluted in buffer. Syringe pumps were used to mix the ethanolic lipid solution with the mRNA aqueous solution. The ethanol was then removed, and the external buffer replaced with another buffer (e.g., Tris) by dialysis. Finally, the lipid nanoparticles were filtered.
(§2) Total RNA concentration and encapsulation efficiency was assessed using the RiboGreen RNA quantitation assay. RNA integrity pre and post formulation was monitored by Agilent Fragment Analyzer capillary gel electrophoresis. Malvern Zetasizer dynamic light scattering (DLS) was used to determine LNP size and polydispersity index (PDI). In vitro expression of the novel ionizable lipid nanoparticles was assessed in HEK293F and Hela cells similar to described in Example 72. Nuclear count and identification of cells stained positive for gene of interest was done on an Opera Phenix high content imager (PerkinElmer, USA).

[2] = Encapsulation efficiency, RiboGreen RNA quantitation assay (CA HA modFlu mRNA LNPs); assay type: physicochemical; conditions: LNP with CA HA modFlu mRNA
Protocol: as §1, §2

HEK293F cells = assay: In vitro expression of novel ionizable lipid nanoparticles, high content imaging (CA HA modFlu mRNA); assay type: cell-based; conditions: LNP with CA HA modFlu mRNA
Protocol: (§3) Plated Hek293T or Hela cells were dosed with lipid nanoparticles in a total volume of 40 μl cell culture media and incubated overnight at 37° C. and 5% CO2. After fixation with 4% paraformaldehyde in PBS cells were washed in PBS containing 0.3% Triton-X100 and 3% BSA (w/v), followed by nuclear staining with Hoechst and antibody staining for the encoded gene of interest. Nuclear count and identification of cells stained positive for gene of interest was done on an Opera Phenix high content imager (PerkinElmer, USA).
as §1, §2

Hela cells = assay: as above; assay type: cell-based; conditions: LNP with CA HA modFlu mRNA
Protocol: as §3, §1, §2

SMILES	Size (nm) [1] [nm]	PDI [1]	EE % [2] [%]	EC50 Hek293F (ng/well) (HEK293F cells)	EC50 Hela (ng/well) (Hela cells)
CCCCCCCC(CCCCCCC)C(=O)O[C@@H]1CC2(CCN(CCO)CC2)C[C@H]1OC(=O)C(CCCCCCC)CCCCCCC (racemic) [Example 52, rac-(2R,3R)-8-(2-hydroxyethyl)-8-azaspiro[4.5]decane-2,3-diyl bis(2-heptylnonanoate)]	66	0.088	99	3.3	11.0
CCCCCCCC(CCCCCCC)C(=O)O[C@@H]1CC2(CCN(CCCO)C2)C[C@H]1OC(=O)C(CCCCCCC)CCCCCCC (racemic) [Example 53, rac-(7R,8R)-2-(3-hydroxypropyl)-2-azaspiro[4.4]nonane-7,8-diyl bis(2-heptylnonanoate)]	89	0.090	94	2.3	29.5
CCCCCCCC(CCCCCCC)C(=O)O[C@@H]1CC2(CCN(CCCO)CC2)C[C@H]1OC(=O)C(CCCCCCC)CCCCCCC (racemic) [Example 54, rac-(2R,3R)-8-(3-hydroxypropyl)-8-azaspiro[4.5]decane-2,3-diyl bis(2-heptylnonanoate)]	71	0.101	98	1.5	3.6
CCCCCCCC(CCCCCCC)C(=O)O[C@@H]1CC2(CCN(CCCNc3c(NC)c(=O)c3=O)CC2)C[C@H]1OC(=O)C(CCCCCCC)CCCCCCC (racemic) [Example 55, rac-(2R,3R)-8-(3-((2-(methylamino)-3,4-dioxocyclobut-1-en-1-yl)amino)propyl)-8-azaspiro[4.5]decane-2,3-diyl bis(2-heptylnonanoate)]	65	0.124	100	21.4	45.0
CCCCCCCC(CCCCCCC)C(=O)O[C@@H]1CC2(CCN(CCCCCO)CC2)C[C@H]1OC(=O)C(CCCCCCC)CCCCCCC (racemic) [Example 56, rac-(2R,3R)-8-(5-hydroxypentyl)-8-azaspiro[4.5]decane-2,3-diyl bis(2-heptylnonanoate)]	81	0.063	98	0.60	0.96
CCCCCCCCC(CCCCCCCC)C(=O)O[C@@H]1CC2(CCN(CCCCO)CC2)C[C@H]1OC(=O)C(CCCCCCCC)CCCCCCCC (racemic) [Example 59, rac-(2R,3R)-8-(4-hydroxybutyl)-8-azaspiro[4.5]decane-2,3-diyl bis(2-octyldecanoate)]	80	0.091	97	2.3	34.6
CCCCCCCCCCCCC(CCCCCCC)C(=O)O[C@@H]1CC2(CCN(CCCCO)CC2)C[C@H]1OC(=O)C(CCCCCCC)CCCCCCCCCCCC (mixture of isomers) [Example 60, rac-(2R,3R)-8-(4-hydroxybutyl)-8-azaspiro[4.5]decane-2,3-diyl bis(2-heptyltetradecanoate)]	94	0.117	98	1.6	>50
CCCCCCCCC(CCCCCC)C(=O)O[C@@H]1CC2(CCN(CCCCO)CC2)C[C@H]1OC(=O)C(CCCCCC)CCCCCCCC (mixture of isomers) [Example 61, rac-(2R,3R)-8-(4-hydroxybutyl)-8-azaspiro[4.5]decane-2,3-diyl bis(2-hexyldecanoate)]	77	0.094	99	1.0	1.6
CCCCCCCC(CCCCCCC)OC(=O)CCC(=O)O[C@@H]1CC2(CCN(CCCCO)CC2)C[C@H]1OC(=O)CCC(=O)OC(CCCCCCC)CCCCCCC (racemic) [Example 62, rac-O,O′-((2R,3R)-8-(4-hydroxybutyl)-8-azaspiro[4.5]decane-2,3-diyl) di(pentadecan-8-yl) disuccinate]	161	0.090	99	0.36	1.0
CCCCCCCC(CCCCCCC)OC(=O)CCCCCC(=O)O[C@@H]1CC2(CCN(CCCCO)CC2)C[C@H]1OC(=O)CCCCCC(=O)OC(CCCCCCC)CCCCCCC (racemic) [Example 63, rac-O′^1,O^1-((2R,3R)-8-(4-hydroxybutyl)-8-azaspiro[4.5]decane-2,3-diyl) 7,7′-di(pentadecan-8-yl) di(heptanedioate)]	107	0.060	99	0.39	0.58
CCCCCCCC(CCCCCCC)C(=O)OCCCCCC(=O)O[C@@H]1CC2(CCN(CCCCO)CC2)C[C@H]1OC(=O)CCCCCOC(=O)C(CCCCCCC)CCCCCCC (racemic) [Example 64, rac-(((2R,3R)-8-(4-hydroxybutyl)-8-azaspiro[4.5]decane-2,3-diyl)bis(oxy))bis(6-oxohexane-6,1-diyl) bis(2-heptylnonanoate)]	110	0.056	99	0.64	0.69
CCCCCCCCC(CCCCC)C(=O)O[C@@H]1CC2(CCN(CCCCO)CC2)C[C@H]1OC(=O)C(CCCCC)CCCCCCCC (mixture of isomers) [Example 65, rac-(2R,3R)-8-(4-hydroxybutyl)-8-azaspiro[4.5]decane-2,3-diyl bis(2-pentyldecanoate)]	123	0.038	97	0.35	0.57
CCCCCCCCC(CCCCCCC)C(=O)O[C@@H]1CC2(CCN(CCCCO)CC2)C[C@H]1OC(=O)C(CCCCCCC)CCCCCCCC (mixture of isomers) [Example 66, rac-(2R,3R)-8-(4-hydroxybutyl)-8-azaspiro[4.5]decane-2,3-diyl bis(2-heptyldecanoate)]	78	0.146	97	1.1	2.2
CCCCCCCCCC(CCCCCC)C(=O)O[C@@H]1CC2(CCN(CCCCO)CC2)C[C@H]1OC(=O)C(CCCCCC)CCCCCCCCC (mixture of isomers) [Example 67, rac-(2R,3R)-8-(4-hydroxybutyl)-8-azaspiro[4.5]decane-2,3-diyl bis(2-hexylundecanoate)]	89	0.127	96	1.4	2.0
CCCCCCCCC(CCCCCC)C(=O)O[C@@H]1CC2(CCN(CCCCO)CC2)C[C@H]1OC(=O)C(CC)CCCCCCC (mixture of isomers) [Example 70, rac-(2R,3R)-3-((2-ethylnonanoyl)oxy)-8-(4-hydroxybutyl)-8-azaspiro[4.5]decan-2-yl 2-hexyldecanoate]	116	0.110	98	3.0	1.2
CCCCCCCC(CCCCCCC)C(=O)O[C@@H]1CC2(CCN(CCCCO)CC2)C[C@H]1OC(=O)C(CCCCCCC)CCCCCCC (single isomer, unassigned) [Example 57, (2R*,3R*)-8-(4-hydroxybutyl)-8-azaspiro[4.5]decane-2,3-diyl bis(2-heptylnonanoate)]	74	0.118	99	2.9	4.7
CCCCCCCC(CCCCCCC)C(=O)O[C@H]1CC2(CCN(CCCCO)CC2)C[C@@H]1OC(=O)C(CCCCCCC)CCCCCCC (single isomer, unassigned) [Example 58, (2S*,3S*)-8-(4-hydroxybutyl)-8-azaspiro[4.5]decane-2,3-diyl bis(2-heptylnonanoate)]	79	0.125	98	1.6	1.7
CCCCCCCCC(C(=O)OCC(COC(=O)C(CCCCCCCC)C1CCC1)N1CCC2(CCN(CCCCO)CC2)CC1)C1CCC1 (stereo not drawn) [Example 4, 2-(9-(4-hydroxybutyl)-3,9-diazaspiro[5.5]undecan-3-yl)propane-1,3-diyl bis(2-cyclobutyldecanoate)]	97	0.170	98	46.9	>50
